How the values were obtained:
Experiment in all cases: NCI SRB growth inhibition (single dose 10 µM / five-dose)
Assay type in all cases: cell-based, human
786–0 = settings: Homo sapiens; for inhibition at 10 µM: 786–0 (Renal cancer), read-out: GI%
Summary of the method: (§1)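 Cells plated at 5000–40,000 cells/well by doubling time; time-zero plates TCA-fixed after 24 h. Compounds (DMSO stocks) added at five 10-fold or ½-log concentrations plus control. Adherent cells TCA-fixed, stained with 0.4% SRB in 1% acetic acid; percentage growth from Tz, C and Ti absorbances.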

HCT-116 = settings: Homo sapiens, HCT-116; for inhibition at 10 µM: read-out: GI%
Summary of the method: as §1

IGROV1 = settings: Homo sapiens, IGROV-1; for inhibition at 10 µM: IGROV1 (Ovarian cancer), read-out: GI%
Summary of the method: as §1

K-562 = settings: Homo sapiens, K562; for inhibition at 10 µM: K-562 (Leukemia), read-out: GI%
Summary of the method: as §1

M14 = settings: Homo sapiens; for inhibition at 10 µM: M14 (Melanoma), read-out: GI%
Summary of the method: as §1

MALME-3 M = settings: Homo sapiens; for inhibition at 10 µM: MALME-3 M (Melanoma), read-out: GI%
Summary of the method: as §1

MDA-MB-435 = settings: Homo sapiens; for inhibition at 10 µM: MDA-MB-435 (Melanoma), read-out: GI%
Summary of the method: as §1

NCI-H226 = settings: Homo sapiens; for inhibition at 10 µM: NCI-H226 (Non-small cell lung cancer), read-out: GI%
Summary of the method: as §1

NCI/ADR-RES = settings: Homo sapiens; for inhibition at 10 µM: NCI/ADR-RES (Ovarian cancer), read-out: GI%
Summary of the method: as §1

OVCAR-3 = settings: Homo sapiens; for inhibition at 10 µM: OVCAR-3 (Ovarian cancer), read-out: GI%
Summary of the method: as §1

OVCAR-4 = settings: Homo sapiens; for inhibition at 10 µM: OVCAR-4 (Ovarian cancer), read-out: GI%
Summary of the method: as §1

RPMI-8226 = settings: Homo sapiens; for inhibition at 10 µM: RPMI-8226 (Leukemia), read-out: GI%
Summary of the method: as §1

RXF 393 = settings: Homo sapiens; for inhibition at 10 µM: RXF 393 (Renal cancer), read-out: GI%
Summary of the method: as §1

SF-295 = settings: Homo sapiens; for inhibition at 10 µM: SF-295 (CNS cancer), read-out: GI%
Summary of the method: as §1

SF-539 = settings: Homo sapiens; for inhibition at 10 µM: SF-539 (CNS cancer), read-out: GI%
Summary of the method: as §1

SK-MEL-28 = settings: Homo sapiens; for inhibition at 10 µM: SK-MEL-28 (Melanoma), read-out: GI%
Summary of the method: as §1

SK-MEL-5 = settings: Homo sapiens; for inhibition at 10 µM: SK-MEL-5 (Melanoma), read-out: GI%
Summary of the method: as §1

SK-OV-3 = settings: Homo sapiens; for inhibition at 10 µM: SK-OV-3 (Ovarian cancer), read-out: GI%
Summary of the method: as §1

SW-620 = settings: Homo sapiens; for inhibition at 10 µM: SW-620 (Colon cancer), read-out: GI%
Summary of the method: as §1

T-47D = settings: Homo sapiens, T47D; for inhibition at 10 µM: T-47D (Breast cancer), read-out: GI%
Summary of the method: as §1

TK-10 = settings: Homo sapiens; for inhibition at 10 µM: TK-10 (Renal cancer), read-out: GI%
Summary of the method: as §1

UACC-62 = settings: Homo sapiens; for inhibition at 10 µM: UACC-62 (Melanoma), read-out: GI%
Summary of the method: as §1

UO-31 = settings: Homo sapiens; for inhibition at 10 µM: UO-31 (Renal cancer), read-out: GI%
Summary of the method: as §1

SMILES: COc1ccc(OC)c(C=NNC(=O)c2ccc3[nH]c(-c4ccc(Cl)cc4)nc3c2)c1 [8t, 2-(4-Chlorophenyl)-N'-(2,5-dimethoxybenzylidene)-1H-benzo[d]imidazole-5-carbohydrazide]
- inhibition at 10 µM (786–0): 26.6%
- inhibition at 10 µM (HCT-116): 43.1%
- inhibition at 10 µM (IGROV1): 7.82%
- inhibition at 10 µM (K-562): 52.9%
- inhibition at 10 µM (M14): 30.9%
- inhibition at 10 µM (MALME-3 M): 18.4%
- inhibition at 10 µM (MDA-MB-435): 14.3%
- inhibition at 10 µM (NCI-H226): 35.7%
- inhibition at 10 µM (NCI/ADR-RES): 11.2%
- inhibition at 10 µM (OVCAR-3): 10.8%
- inhibition at 10 µM (OVCAR-4): 38.9%
- inhibition at 10 µM (RPMI-8226): 62.2%
- inhibition at 10 µM (RXF 393): 96.5%
- inhibition at 10 µM (SF-295): 51.9%
- inhibition at 10 µM (SF-539): 45.3%
- inhibition at 10 µM (SK-MEL-28): 14.6%
- inhibition at 10 µM (SK-MEL-5): 68.8%
- inhibition at 10 µM (SK-OV-3): 15.1%
- inhibition at 10 µM (SW-620): 7.98%
- inhibition at 10 µM (T-47D): 61.8%
- inhibition at 10 µM (TK-10): 10.9%
- inhibition at 10 µM (UACC-62): 24.3%
- inhibition at 10 µM (UO-31): 31.9%

SMILES: COc1ccc(-c2nc3cc(C(=O)NN=Cc4ccc(OC)c(O)c4)ccc3[nH]2)cc1 [8l, N'-(3-Hydroxy-4-methoxybenzylidene)-2-(4-methoxyphenyl)-1H-benzo[d]imidazole-5-carbohydrazide]
- inhibition at 10 µM (786–0): 18.1%
- inhibition at 10 µM (HCT-116): 43.8%
- inhibition at 10 µM (IGROV1): 20.3%
- inhibition at 10 µM (K-562): 48.5%
- inhibition at 10 µM (M14): 63.5%
- inhibition at 10 µM (MALME-3 M): 87.6%
- inhibition at 10 µM (MDA-MB-435): 26.5%
- inhibition at 10 µM (NCI-H226): 24.5%
- inhibition at 10 µM (NCI/ADR-RES): < 5%
- inhibition at 10 µM (OVCAR-3): 37.6%
- inhibition at 10 µM (OVCAR-4): 9.88%
- inhibition at 10 µM (RPMI-8226): 32.4%
- inhibition at 10 µM (RXF 393): 37.2%
- inhibition at 10 µM (SF-295): 51%
- inhibition at 10 µM (SF-539): 42.6%
- inhibition at 10 µM (SK-MEL-28): 52.5%
- inhibition at 10 µM (SK-MEL-5): 55.3%
- inhibition at 10 µM (SK-OV-3): < 5%
- inhibition at 10 µM (SW-620): 21.8%
- inhibition at 10 µM (T-47D): 52.5%
- inhibition at 10 µM (TK-10): < 5%
- inhibition at 10 µM (UACC-62): 47.6%
- inhibition at 10 µM (UO-31): 9.13%

SMILES: COc1ccc(-c2nc3cc(C(=O)NN=Cc4cccc(O)c4)ccc3[nH]2)cc1 [8i, N'-(3-Hydroxybenzylidene)-2-(4-methoxyphenyl)-1H-benzo[d]imidazole-5-carbohydrazide]
- inhibition at 10 µM (786–0): 23.4%
- inhibition at 10 µM (HCT-116): 42.8%
- inhibition at 10 µM (IGROV1): 11.2%
- inhibition at 10 µM (K-562): 60.6%
- inhibition at 10 µM (M14): 39.1%
- inhibition at 10 µM (MALME-3 M): > 100%
- inhibition at 10 µM (MDA-MB-435): 63.8%
- inhibition at 10 µM (NCI-H226): 7.75%
- inhibition at 10 µM (NCI/ADR-RES): < 5%
- inhibition at 10 µM (OVCAR-3): 8.04%
- inhibition at 10 µM (OVCAR-4): 27.1%
- inhibition at 10 µM (RPMI-8226): 24.8%
- inhibition at 10 µM (RXF 393): 14.5%
- inhibition at 10 µM (SF-295): 22%
- inhibition at 10 µM (SF-539): 53.3%
- inhibition at 10 µM (SK-MEL-28): 52.9%
- inhibition at 10 µM (SK-MEL-5): 40.5%
- inhibition at 10 µM (SK-OV-3): 54%
- inhibition at 10 µM (SW-620): 6.72%
- inhibition at 10 µM (T-47D): 86.8%
- inhibition at 10 µM (TK-10): < 5%
- inhibition at 10 µM (UACC-62): 50.8%
- inhibition at 10 µM (UO-31): 10.5%

SMILES: COc1ccc(-c2nc3cc(C(=O)NN=Cc4cccc(OC)c4O)ccc3[nH]2)cc1 [8k, N'-(2-Hydroxy-3-methoxybenzylidene)-2-(4-methoxyphenyl)-1H-benzo[d]imidazole-5-carbohydrazide]
- inhibition at 10 µM (786–0): > 100%
- GI50 (786–0; 786–0, Renal cancer, five-dose): 3.69 µM
- GI50 (HCT-116): 2.9 µM
- inhibition at 10 µM (HCT-116): > 100%
- inhibition at 10 µM (IGROV1): 84.8%
- GI50 (IGROV1; IGROV1, Ovarian cancer, five-dose): 3.52 µM
- inhibition at 10 µM (K-562): > 100%
- GI50 (K-562; K-562, Leukemia, five-dose): 3.74 µM
- inhibition at 10 µM (M14): 91%
- GI50 (M14; M14, Melanoma, five-dose): 2.81 µM
- inhibition at 10 µM (MALME-3 M): > 100%
- GI50 (MALME-3 M; MALME-3 M, Melanoma, five-dose): 1.09 µM
- inhibition at 10 µM (MDA-MB-435): 76%
- GI50 (MDA-MB-435; MDA-MB-435, Melanoma, five-dose): 6.2 µM
- inhibition at 10 µM (NCI-H226): 82.2%
- GI50 (NCI-H226; NCI-H226, Non-small cell lung cancer, five-dose): 3.14 µM
- inhibition at 10 µM (NCI/ADR-RES): 28.1%
- GI50 (NCI/ADR-RES; NCI/ADR-RES, Ovarian cancer, five-dose): > 100 µM
- inhibition at 10 µM (OVCAR-3): > 100%
- GI50 (OVCAR-3; OVCAR-3, Ovarian cancer, five-dose): 1.25 µM
- inhibition at 10 µM (OVCAR-4): 86%
- GI50 (OVCAR-4; OVCAR-4, Ovarian cancer, five-dose): 3.26 µM
- inhibition at 10 µM (RPMI-8226): > 100%
- GI50 (RPMI-8226; RPMI-8226, Leukemia, five-dose): 2.8 µM
- inhibition at 10 µM (RXF 393): > 100%
- GI50 (RXF 393; RXF 393, Renal cancer, five-dose): 2.58 µM
- inhibition at 10 µM (SF-295): 96.4%
- GI50 (SF-295; SF-295, CNS cancer, five-dose): 2.48 µM
- inhibition at 10 µM (SF-539): > 100%
- GI50 (SF-539; SF-539, CNS cancer, five-dose): 2.8 µM
- inhibition at 10 µM (SK-MEL-28): > 100%
- GI50 (SK-MEL-28; SK-MEL-28, Melanoma, five-dose): 3.32 µM
- inhibition at 10 µM (SK-MEL-5): > 100%
- GI50 (SK-MEL-5; SK-MEL-5, Melanoma, five-dose): 2.86 µM
- inhibition at 10 µM (SK-OV-3): > 100%
- GI50 (SK-OV-3; SK-OV-3, Ovarian cancer, five-dose): 4.31 µM
- inhibition at 10 µM (SW-620): 98.8%
- GI50 (SW-620; SW-620, Colon cancer, five-dose): 4.35 µM
- inhibition at 10 µM (T-47D): 95%
- GI50 (T-47D; T-47D, Breast cancer, five-dose): 3.48 µM
- inhibition at 10 µM (TK-10): 40%
- GI50 (TK-10; TK-10, Renal cancer, five-dose): > 100 µM
- inhibition at 10 µM (UACC-62): 98%
- GI50 (UACC-62; UACC-62, Melanoma, five-dose): 2.78 µM
- inhibition at 10 µM (UO-31): 83.2%
- GI50 (UO-31; UO-31, Renal cancer, five-dose): 3.34 µM

Reference: article PMC10893631, “Receptor-based pharmacophore modeling, molecular docking, synthesis and biological evaluation of novel VEGFR-2, FGFR-1, and BRAF multi-kinase inhibitors” (BMC Chemistry, 2024)
